Holding throughout (format): cell-based, Staphylococcus aureus
The subject of assay [1] is S. aureus JE2 lspA transposon mutant (SAUSA300_1089). As to conditions: Etest on TSA, 37°C, 22 h. From the text:
(§1) Staphylococcus aureus is intrinsically resistant to the clinically approved cationic antimicrobial peptides polymyxin B (PMB) and colistin ([1], [16]). […] The MIC for PMB was subsequently determined using Etests for the identified mutants. Nineteen mutants were confirmed to be at least 2-fold more susceptible than the WT (Table 1). As expected, we identified transposon insertions in graS, graR, vraF, and vraG, corroborating previous work on these determinants in S. aureus in relation to increased PMB susceptibility ([12]).
(§2) The strains used in this study include S. aureus strain JE2 (plasmid-cured derivative of USA300 LAC) and all derivative strains within the Nebraska Transposon Mutant Library (NTML), consisting of 1,920 unique transposon mutants with inactivation of nonessential genes ([15]). The bursa aurealis transposon used to create the collection contains the resistance cassette ermB, which confers resistance to erythromycin ([15]). Additionally we used S. aureus SA113 and two derivatives, SA113 ΔdltA ([9]) and SA113 ΔmprF ([10]). All bacterial strains were cultured at 37°C in tryptic soy broth (TSB) or on tryptic soy agar (TSA), with antimicrobial agents added as indicated. Two methods have been employed to determine MICs to various antimicrobial agents. (i) A 2-fold broth microdilution assay in TSB (100 µl) with an initial inoculum of approximately 5 × 10^5 cells/ml was employed to determine the MICs of polymyxin B sulfate (Sigma), gallidermin (Santa Cruz Biotechnology), nisin (Sigma), bacitracin (Sigma), and LL-37 (Isca Biochemicals). (ii) An Etest (BioMérieux) performed on TSA plates was employed to determine MICs for polymyxin B, colistin, ciprofloxacin, oxacillin, linezolid, gentamicin, vancomycin, and daptomycin. The MIC was determined upon incubation at 37°C for 22 h. When indicated, the Etest (BioMérieux) was performed on Mueller-Hinton agar plates (cation adjusted for calcium and magnesium).

Assay [2] concerns S. aureus JE2 atpB transposon mutant (SAUSA300_2064). As to conditions: Etest on TSA.
From the text: as §1, §2

The subject of assay [3] is S. aureus JE2 transposon mutant SAUSA300_0918 (diacylglycerol glucosyltransferase). As to conditions: Etest on TSA, 37°C, 22 h.
From the text: as §1, §2

The subject of assay [4] is S. aureus JE2 graS transposon mutant (SAUSA300_0646). As to conditions: Etest on TSA.
From the text: as §1, §2

Assay [5] deals with S. aureus JE2 cbiO transposon mutant (SAUSA300_2176). As to conditions: Etest on TSA, 37°C, 22 h.
From the text: as §1, §2

The subject of assay [6] is S. aureus JE2 yajC transposon mutant (SAUSA300_1594). The settings on record: Etest on TSA, 37°C, 22 h.
From the text: as §1, §2

In assay [7] the test system is S. aureus JE2 vraS transposon mutant (SAUSA300_1866). As to conditions: Etest on TSA, 37°C, 22 h.
From the text: as §1, §2

Assay [8] relates to S. aureus JE2 trkA transposon mutant (SAUSA300_0988). The settings on record: Etest on TSA, 37°C, 22 h.
From the text: as §1, §2

Assay [9] has as its system S. aureus JE2 transposon mutant SAUSA300_1802 (hypothetical protein). As to conditions: Etest on TSA, 37°C, 22 h.
From the text: as §1, §2

Assay [10] concerns S. aureus JE2 transposon mutant SAUSA300_1254 (hypothetical protein). The settings on record: Etest on TSA, 37°C, 22 h.
From the text: as §1, §2

The test system of assay [11] is S. aureus JE2 transposon mutant SAUSA300_1785 (putative ABC transporter protein EcsB). The settings on record: Etest on TSA, 37°C, 22 h.
From the text: as §1, §2

In assay [12] the test system is S. aureus JE2 transposon mutant SAUSA300_1495 (hypothetical protein). As to conditions: Etest on TSA, 37°C, 22 h.
From the text: as §1, §2

The subject of assay [13] is S. aureus JE2 transposon mutant SAUSA300_0980 (hypothetical protein). The settings on record: Etest on TSA, 37°C, 22 h.
From the text: as §1, §2

Assay [14] relates to S. aureus JE2 atpG transposon mutant (SAUSA300_2059). As to conditions: Etest on TSA.
From the text: as §1, §2

The test system of assay [15] is S. aureus JE2 atpH transposon mutant (SAUSA300_2061). As to conditions: Etest on TSA.
From the text: as §1, §2

For assay [16], the system named is S. aureus JE2 vraG mutant. As to conditions: Etest on cation-adjusted Mueller-Hinton agar, 37°C, 22 h. As for the experimental part: (§3) It has been reported that growth medium composition can affect polymyxin MIC ([23]): therefore, we also tested polymyxin B MICs of the WT and atpA, graR, vraG, and vraF mutants by employing the Etest on cation-adjusted Mueller-Hinton (MH) agar. […] Polymyxin B breakpoints for Pseudomonas aeruginosa are susceptible at a MIC of ≤2 μg/ml, intermediate at a MIC of 4 μg/ml, and resistant at a MIC of ≥8 μg/ml, whereas for Acinetobacter spp., a MIC of ≥4 μg/ml is considered resistant.
as §2

The test system of assay [17] is S. aureus JE2 graR mutant. The settings on record: Etest on cation-adjusted Mueller-Hinton agar, 37°C, 22 h. As for the experimental part: as §3, §2
For the next assay, the system named is S. aureus JE2 (WT). The settings on record: Etest on cation-adjusted Mueller-Hinton agar, 37°C, 22 h. As for the experimental part:
as §3, §2

Assay [18] deals with S. aureus JE2 vraF mutant. As to conditions: Etest on cation-adjusted Mueller-Hinton agar, 37°C, 22 h. The procedure: as §3, §2
In assay [19] the test system is S. aureus JE2 atpA mutant. The settings on record: Etest on cation-adjusted Mueller-Hinton agar, 37°C, 22 h. As for the experimental part: as §3, §2

Results on one compound are retold here after PMC5587909, “Inhibition of the ATP Synthase Eliminates the Intrinsic Resistance of Staphylococcus aureus towards Polymyxins” (mBio, 2017).

≈ marks a conversion by molar mass, not a printed value. Bridge positions count the residues as written; N and C are the ends. Square brackets hold non-standard residues; d marks the D form. Peptide text beside a SMILES is read from it. * marks the point of attachment. X1 = CC[C@H](C)CCCCC(=O)*; Dab = NCC[C@H](N)C(=O)O

Turning to `CC[C@H](C)CCCCC(=O)N[C@@H](CCN)C(=O)N[C@H](C(=O)N[C@@H](CCN)C(=O)N[C@H]1CCNC(=O)[C@H]([C@@H](C)O)NC(=O)[C@H](CCN)NC(=O)[C@H](CCN)NC(=O)[C@H](CC(C)C)NC(=O)[C@@H](Cc2ccccc2)NC(=O)[C@H](CCN)NC1=O)[C@@H](C)O` [Polymyxin B, polymyxin B] (X1-[Dab]T[Dab][Dab][Dab][dF]L[Dab][Dab]T; lactam 4-C (inferred); N-terminus assumed), the MIC (usually the lowest concentration that inhibits growth of the organism) in [1] is 64 µg/mL (≈ 53.2 µM); in [2] (37°C, 22 h, atpB mutant), 16 µg/mL (≈ 13.3 µM); in assay [3], 64 µg/mL (≈ 53.2 µM); in assay [4] (37°C, 22 h, graS mutant), 24 µg/mL (≈ 19.9 µM); in assay [5], 48 µg/mL (≈ 39.9 µM); in assay [6] it was 64 µg/mL (≈ 53.2 µM). In addition, the MIC in [7] is 64 µg/mL (≈ 53.2 µM); in [8], 48 µg/mL (≈ 39.9 µM); in assay [9], 64 µg/mL (≈ 53.2 µM); in [10], 48 µg/mL (≈ 39.9 µM); in [11], 48 µg/mL (≈ 39.9 µM); in assay [12] it was 64 µg/mL (≈ 53.2 µM). Besides, the MIC was 48 µg/mL (≈ 39.9 µM) in [13]; 16 µg/mL (≈ 13.3 µM) in [14] (37°C, 22 h, atpG mutant); 16 µg/mL (≈ 13.3 µM) in assay [15] (37°C, 22 h, atpH mutant); 1.5 to 2 µg/mL in assay [16]; 1 to 2 µg/mL in [17]; 8 to 16 µg/mL in the assay with S. aureus JE2 (WT). Besides, the MIC is 1.5 to 2 µg/mL in assay [18] and 2 to 4 µg/mL in [19]. The “fold reduction in MIC relative to WT” value in assay [2] (atpB mutant vs WT JE2), in assay [4] (graS mutant vs WT JE2), in [14] (atpG mutant vs WT JE2) and in assay [15] (atpH mutant vs WT JE2) was 8 fold in each case.
